Data: ChEMBL document CHEMBL1156521, “Three-dimensional structure of the EphB2 receptor in complex with an antagonistic peptide reveals a novel mode of inhibition” (J Biol Chem, 2007)
pIC50, pKd: −log10 of the molar value. Residues, ends and D or L forms follow the SMILES beside them.

Target: T1, Ephrin type-B receptor 2 (Mus musculus, UniProt P54763)
T1 sequence (P54763 whole entry): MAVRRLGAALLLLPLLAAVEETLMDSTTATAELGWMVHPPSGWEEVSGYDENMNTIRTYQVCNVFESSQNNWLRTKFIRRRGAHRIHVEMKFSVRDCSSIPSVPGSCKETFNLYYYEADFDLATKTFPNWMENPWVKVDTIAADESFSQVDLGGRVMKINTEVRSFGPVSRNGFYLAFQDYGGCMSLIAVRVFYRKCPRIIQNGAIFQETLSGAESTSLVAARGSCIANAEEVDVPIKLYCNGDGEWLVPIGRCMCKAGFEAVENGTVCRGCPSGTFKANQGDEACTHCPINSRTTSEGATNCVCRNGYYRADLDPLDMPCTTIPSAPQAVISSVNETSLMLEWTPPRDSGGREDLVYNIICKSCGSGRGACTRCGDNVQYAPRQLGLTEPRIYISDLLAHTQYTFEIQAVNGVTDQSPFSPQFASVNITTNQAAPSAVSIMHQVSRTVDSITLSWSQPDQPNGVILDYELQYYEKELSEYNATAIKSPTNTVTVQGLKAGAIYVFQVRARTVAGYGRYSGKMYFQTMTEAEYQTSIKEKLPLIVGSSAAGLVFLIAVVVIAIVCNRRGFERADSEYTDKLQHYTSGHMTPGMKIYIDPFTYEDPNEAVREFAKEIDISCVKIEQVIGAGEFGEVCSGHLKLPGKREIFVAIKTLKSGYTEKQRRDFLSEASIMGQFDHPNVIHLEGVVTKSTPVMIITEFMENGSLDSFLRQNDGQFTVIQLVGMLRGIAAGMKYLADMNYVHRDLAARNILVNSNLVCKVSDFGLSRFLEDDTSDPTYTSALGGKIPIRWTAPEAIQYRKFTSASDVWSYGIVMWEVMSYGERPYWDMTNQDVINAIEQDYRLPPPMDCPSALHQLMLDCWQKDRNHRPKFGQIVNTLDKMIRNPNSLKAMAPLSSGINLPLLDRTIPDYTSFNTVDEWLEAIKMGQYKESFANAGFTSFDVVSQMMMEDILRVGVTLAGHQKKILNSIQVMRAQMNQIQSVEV
Test: Binding affinity at mouse EphB2 receptor by ELISA

Compound | pIC50
CC[C@H](C)[C@H](NC(=O)[C@H](Cc1c[nH]c2ccccc12)NC(=O)[C@H](CCC(=O)O)NC(=O)[C@H](CC(N)=O)NC(=O)[C@@H](N)CO)C(=O)N[C@@H](CCC(N)=O)C(=O)N1CCC[C@H]1C(=O)N[C@@H](CCCNC(=N)N)C(=O)N[C@@H](CC(C)C)C(=O)N1CCC[C@H]1C(=O)N[C@@H](CCC(N)=O)C(=O)N[C@@H](Cc1cnc[nH]1)C(=O)O | 4.82

Target: T2, Ephrin type-B receptor 2 (Homo sapiens, UniProt P29323)
T2 sequence (P29323 whole entry): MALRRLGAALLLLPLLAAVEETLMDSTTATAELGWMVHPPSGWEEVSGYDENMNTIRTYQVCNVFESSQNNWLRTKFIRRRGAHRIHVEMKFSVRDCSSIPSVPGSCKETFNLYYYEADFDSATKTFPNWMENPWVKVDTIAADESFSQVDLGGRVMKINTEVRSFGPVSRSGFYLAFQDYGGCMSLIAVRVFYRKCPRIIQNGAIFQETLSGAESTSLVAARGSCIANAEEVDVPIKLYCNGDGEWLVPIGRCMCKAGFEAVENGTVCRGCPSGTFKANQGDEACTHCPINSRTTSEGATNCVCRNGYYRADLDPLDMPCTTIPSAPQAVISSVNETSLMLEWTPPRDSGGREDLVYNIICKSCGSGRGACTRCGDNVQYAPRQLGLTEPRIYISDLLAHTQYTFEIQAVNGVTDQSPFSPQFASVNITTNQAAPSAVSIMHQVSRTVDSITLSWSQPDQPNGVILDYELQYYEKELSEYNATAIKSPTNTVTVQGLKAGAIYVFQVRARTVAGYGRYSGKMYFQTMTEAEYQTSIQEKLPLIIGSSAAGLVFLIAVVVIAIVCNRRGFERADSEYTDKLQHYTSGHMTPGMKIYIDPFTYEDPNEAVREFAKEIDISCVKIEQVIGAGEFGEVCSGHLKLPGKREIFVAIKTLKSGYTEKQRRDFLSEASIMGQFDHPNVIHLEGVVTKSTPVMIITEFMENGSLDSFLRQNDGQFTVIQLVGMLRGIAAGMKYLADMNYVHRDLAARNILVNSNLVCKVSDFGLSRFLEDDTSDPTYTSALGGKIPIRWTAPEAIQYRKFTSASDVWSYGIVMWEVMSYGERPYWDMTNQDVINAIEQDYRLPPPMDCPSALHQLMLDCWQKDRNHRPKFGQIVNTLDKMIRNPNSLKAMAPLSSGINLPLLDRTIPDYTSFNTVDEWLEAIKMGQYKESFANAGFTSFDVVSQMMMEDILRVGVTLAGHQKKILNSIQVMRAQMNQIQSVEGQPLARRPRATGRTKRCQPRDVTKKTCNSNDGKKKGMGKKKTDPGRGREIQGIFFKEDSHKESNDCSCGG
Test: Binding affinity at human EphB2 receptor by isothermal titration calorimetry

Compound | pKd
CC[C@H](C)[C@H](NC(=O)[C@H](Cc1c[nH]c2ccccc12)NC(=O)[C@H](CCC(=O)O)NC(=O)[C@H](CC(N)=O)NC(=O)[C@@H](N)CO)C(=O)N[C@@H](CCC(N)=O)C(=O)N1CCC[C@H]1C(=O)N[C@@H](Cc1cnc[nH]1)C(=O)N[C@@H](CC(C)C)C(=O)N1CCC[C@H]1C(=O)N[C@@H](CCC(N)=O)C(=O)N[C@@H](Cc1cnc[nH]1)C(=O)O (H-SNEWIQPHLPQH-OH) | < 4.30
CC[C@H](C)[C@H](NC(=O)[C@H](Cc1c[nH]c2ccccc12)NC(=O)[C@H](CCC(N)=O)NC(=O)[C@H](CC(N)=O)NC(=O)[C@@H](N)CO)C(=O)N[C@@H](CO)C(=O)N1CCC[C@H]1C(=O)N[C@@H](CCCNC(=N)N)C(=O)N[C@@H](CC(C)C)C(=O)N1CCC[C@H]1C(=O)N[C@@H](CCC(N)=O)C(=O)N[C@@H](Cc1cnc[nH]1)C(=O)O (H-SNQWISPRLPQH-OH) | < 4.30
CC[C@H](C)[C@H](NC(=O)[C@H](Cc1c[nH]c2ccccc12)NC(=O)[C@H](CCC(N)=O)NC(=O)[C@H](CC(N)=O)NC(=O)[C@@H](N)CO)C(=O)NCC(=O)N1CCC[C@H]1C(=O)N[C@@H](C)C(=O)N[C@@H](CC(C)C)C(=O)N1CCC[C@H]1C(=O)N[C@@H](CCC(N)=O)C(=O)N[C@@H](Cc1cnc[nH]1)C(=O)O (H-SNQWIGPALPQH-OH) | < 4.30
CC[C@H](C)[C@H](NC(=O)[C@H](Cc1c[nH]c2ccccc12)NC(=O)[C@H](CCC(N)=O)NC(=O)[C@H](CC(N)=O)NC(=O)[C@@H](N)CO)C(=O)N[C@@H](CCC(N)=O)C(=O)N1CCC[C@H]1C(=O)N[C@@H](CCCN=C(N)N)C(=O)N[C@@H](CC(C)C)C(=O)N1CCC[C@H]1C(=O)N[C@@H](CCC(N)=O)C(=O)N[C@@H](Cc1cnc[nH]1)C(=O)O (H-SNQWIQPRLPQH-OH) | < 4.30
CC[C@H](C)[C@H](NC(=O)[C@H](Cc1c[nH]c2ccccc12)NC(=O)[C@H](CCC(N)=O)NC(=O)[C@H](CC(N)=O)NC(=O)[C@@H](N)CO)C(=O)N[C@@H](CC(C)C)C(=O)N1CCC[C@H]1C(=O)N[C@@H](CCCN=C(N)N)C(=O)N[C@@H](CC(C)C)C(=O)N1CCC[C@H]1C(=O)N[C@@H](CCC(N)=O)C(=O)N[C@@H](Cc1cnc[nH]1)C(=O)O (H-SNQWILPRLPQH-OH) | < 4.30
CC[C@H](C)[C@H](NC(=O)[C@@H]1CCCN1C(=O)CNC(=O)[C@H](CC(N)=O)NC(=O)[C@@H]1CCCN1C(=O)[C@H](CO)NC(=O)[C@H](Cc1ccccc1)NC(=O)[C@H](CC(C)C)NC(=O)[C@H](Cc1ccc(O)cc1)NC(=O)[C@H](CC(N)=O)NC(=O)[C@@H](N)[C@H](C)O)C(=O)N[C@@H](C)C(=O)N[C@@H](CCCN=C(N)N)C(=O)N[C@@H](C)C(=O)N[C@@H](Cc1c[nH]c2ccccc12)C(=O)O | < 4.30
CC[C@H](C)[C@H](NC(=O)[C@H](Cc1c[nH]c2ccccc12)NC(=O)[C@H](CCC(=O)O)NC(=O)[C@H](CC(N)=O)NC(=O)[C@@H](N)CO)C(=O)N[C@@H](CCC(N)=O)C(=O)N1CCC[C@H]1C(=O)N[C@@H](C)C(=O)N[C@@H](CC(C)C)C(=O)N1CCC[C@H]1C(=O)N[C@@H](CCC(N)=O)C(=O)N[C@@H](Cc1cnc[nH]1)C(=O)O (H-SNEWIQPALPQH-OH) | < 4.30
